According to the NIST ThermoML archive (doi:10.1021/je900596d):

Conditions: Vibrating tube method

FC(F)=C(F)C(F)(F)F [hexafluoropropene]
Conditions	mass density [kg/m3]
358 K, 4209.5 kPa, Liquid	959.82
358 K, 4244 kPa, Liquid	962.07
358 K, 4311.4 kPa, Liquid	966.64
358 K, 4345.1 kPa, Liquid	968.66
358 K, 4377.8 kPa, Liquid	970.84
358 K, 4412.5 kPa, Liquid	972.94
358 K, 4446.5 kPa, Liquid	974.92
358 K, 4462.6 kPa, Liquid	975.95
358 K, 4478.8 kPa, Liquid	976.81
358 K, 4496.2 kPa, Liquid	977.89
358 K, 4532.3 kPa, Liquid	980.04
358 K, 4565.8 kPa, Liquid	981.81
358 K, 4599.8 kPa, Liquid	983.7
358 K, 4632.6 kPa, Liquid	985.44
358 K, 4668.1 kPa, Liquid	987.45
358 K, 4740 kPa, Liquid	991.23
358 K, 4775.8 kPa, Liquid	993.1
358 K, 4809.3 kPa, Liquid	994.65
358 K, 4843.6 kPa, Liquid	996.44
358 K, 4876.3 kPa, Liquid	997.93
358 K, 4910.7 kPa, Liquid	999.61
358 K, 4945.1 kPa, Liquid	1001.33
358 K, 4979.1 kPa, Liquid	1002.85
358 K, 5028.3 kPa, Liquid	1005.04
358 K, 5084.7 kPa, Liquid	1007.62
358 K, 5195.4 kPa, Liquid	1012.4
358 K, 5249.7 kPa, Liquid	1014.83
358 K, 5306.8 kPa, Liquid	1017.1
358 K, 5363.6 kPa, Liquid	1019.45
358 K, 5416.2 kPa, Liquid	1021.54
358 K, 5474.6 kPa, Liquid	1023.85
358 K, 5533.9 kPa, Liquid	1026.1
358 K, 5592 kPa, Liquid	1028.23
358 K, 5702.1 kPa, Liquid	1032.29
358 K, 5755.2 kPa, Liquid	1034.16
358 K, 5815.3 kPa, Liquid	1036.29
358 K, 5871.8 kPa, Liquid	1038.22
358 K, 5932.6 kPa, Liquid	1040.24
358 K, 5991.6 kPa, Liquid	1042.28
358 K, 6074.8 kPa, Liquid	1044.98
358 K, 6112.3 kPa, Liquid	1046.22
358 K, 6149.2 kPa, Liquid	1047.34
358 K, 6186.4 kPa, Liquid	1048.47
358 K, 6224.4 kPa, Liquid	1049.67
358 K, 6266.3 kPa, Liquid	1050.92
358 K, 6304.3 kPa, Liquid	1052.13
358 K, 6342.4 kPa, Liquid	1053.2
358 K, 6379.7 kPa, Liquid	1054.31
358 K, 6416.4 kPa, Liquid	1055.29
358 K, 6452.8 kPa, Liquid	1056.39
358 K, 6490 kPa, Liquid	1057.54
358 K, 6563.2 kPa, Liquid	1059.62
358 K, 6600.1 kPa, Liquid	1060.63
358 K, 6637.3 kPa, Liquid	1061.72
358 K, 6674.3 kPa, Liquid	1062.71
358 K, 6711.6 kPa, Liquid	1063.79
358 K, 6747.9 kPa, Liquid	1064.77
358 K, 6784.3 kPa, Liquid	1065.78
358 K, 6821 kPa, Liquid	1066.78
358 K, 6857.4 kPa, Liquid	1067.85
358 K, 6894.7 kPa, Liquid	1068.84
358 K, 6931.9 kPa, Liquid	1069.87
358 K, 6970.4 kPa, Liquid	1070.83
358 K, 7006.9 kPa, Liquid	1071.75
358 K, 7152.9 kPa, Liquid	1075.52
358 K, 7190.1 kPa, Liquid	1076.36
358 K, 7228 kPa, Liquid	1077.43
358 K, 7266.4 kPa, Liquid	1078.28
358 K, 7303.8 kPa, Liquid	1079.27
358 K, 7341.7 kPa, Liquid	1080.24
358 K, 7379.5 kPa, Liquid	1081.09
358 K, 7418.9 kPa, Liquid	1082.02
358 K, 7494.3 kPa, Liquid	1083.92
358 K, 7532.3 kPa, Liquid	1084.8
358 K, 7568.4 kPa, Liquid	1085.67
358 K, 7605.7 kPa, Liquid	1086.46
358 K, 7643.1 kPa, Liquid	1087.34
358 K, 7680.1 kPa, Liquid	1088.21
358 K, 7718 kPa, Liquid	1089.17
358 K, 7755.4 kPa, Liquid	1089.97
358 K, 7792.1 kPa, Liquid	1090.77
358 K, 7828.3 kPa, Liquid	1091.56
358 K, 7903.4 kPa, Liquid	1093.29
358 K, 7941.2 kPa, Liquid	1094.08
358 K, 7980.6 kPa, Liquid	1094.93
358 K, 8017.9 kPa, Liquid	1095.72
358 K, 8056.1 kPa, Liquid	1096.58
358 K, 8093.2 kPa, Liquid	1097.39
358 K, 8130.7 kPa, Liquid	1098.19
358 K, 8167.5 kPa, Liquid	1098.98
358 K, 8204.2 kPa, Liquid	1099.77
358 K, 8277.6 kPa, Liquid	1101.37
358 K, 8354.7 kPa, Liquid	1102.88
358 K, 8391 kPa, Liquid	1103.6
358 K, 8427.7 kPa, Liquid	1104.39
358 K, 8465.5 kPa, Liquid	1105.17
358 K, 8503.3 kPa, Liquid	1105.96
358 K, 8541.1 kPa, Liquid	1106.74
358 K, 8614.7 kPa, Liquid	1108.07
358 K, 8651.4 kPa, Liquid	1108.96
358 K, 8689.1 kPa, Liquid	1109.62
358 K, 8725.5 kPa, Liquid	1110.44
358 K, 8762.8 kPa, Liquid	1111.12
358 K, 8836.9 kPa, Liquid	1112.57
358 K, 8873.4 kPa, Liquid	1113.15
358 K, 8910.1 kPa, Liquid	1113.92
358 K, 8946.4 kPa, Liquid	1114.65
358 K, 8982.6 kPa, Liquid	1115.32
358 K, 9019.5 kPa, Liquid	1115.96
358 K, 9058.4 kPa, Liquid	1116.68
358 K, 9094.5 kPa, Liquid	1117.44
358 K, 9170.1 kPa, Liquid	1118.78
358 K, 9207.6 kPa, Liquid	1119.39
358 K, 9244 kPa, Liquid	1120.02
358 K, 9318.1 kPa, Liquid	1121.42
358 K, 9355.8 kPa, Liquid	1122.09
358 K, 9393.2 kPa, Liquid	1122.82
358 K, 9429.9 kPa, Liquid	1123.38
358 K, 9506 kPa, Liquid	1124.84
358 K, 9543.2 kPa, Liquid	1125.38
358 K, 9579.6 kPa, Liquid	1126.21
358 K, 9653.1 kPa, Liquid	1127.35
358 K, 9689.3 kPa, Liquid	1128.07
358 K, 9728 kPa, Liquid	1128.56
358 K, 9764.4 kPa, Liquid	1129.27
358 K, 9801.8 kPa, Liquid	1129.98
358 K, 9839.1 kPa, Liquid	1130.57
358 K, 9875.2 kPa, Liquid	1131.06
358 K, 9913 kPa, Liquid	1131.87
358 K, 9951.5 kPa, Liquid	1132.43
358 K, 9988 kPa, Liquid	1133.16
358.16 K, 4.9 kPa, Fluid (supercritical or subcritical phases)	0.14
358.16 K, 5.8 kPa, Fluid (supercritical or subcritical phases)	0.15
358.16 K, 6.2 kPa, Fluid (supercritical or subcritical phases)	0.17
